Test results reported in patent US20110021565A1, “PIPERIDINE DERIVATIVES AS NK3 ANTAGONISTS” (priority 2007, published 2011).
Counter-ions that a name gives are not always drawn. Like-named read-outs stand apart in the source and are kept apart here.

Target: T1, recombinant human NK3 receptor (Homo sapiens, UniProt P29371)
T1 construct: expressed in transfected cells; host or cells: HEK293 cells, transient expression; membrane preparation
T1 sequence (P29371 1-465): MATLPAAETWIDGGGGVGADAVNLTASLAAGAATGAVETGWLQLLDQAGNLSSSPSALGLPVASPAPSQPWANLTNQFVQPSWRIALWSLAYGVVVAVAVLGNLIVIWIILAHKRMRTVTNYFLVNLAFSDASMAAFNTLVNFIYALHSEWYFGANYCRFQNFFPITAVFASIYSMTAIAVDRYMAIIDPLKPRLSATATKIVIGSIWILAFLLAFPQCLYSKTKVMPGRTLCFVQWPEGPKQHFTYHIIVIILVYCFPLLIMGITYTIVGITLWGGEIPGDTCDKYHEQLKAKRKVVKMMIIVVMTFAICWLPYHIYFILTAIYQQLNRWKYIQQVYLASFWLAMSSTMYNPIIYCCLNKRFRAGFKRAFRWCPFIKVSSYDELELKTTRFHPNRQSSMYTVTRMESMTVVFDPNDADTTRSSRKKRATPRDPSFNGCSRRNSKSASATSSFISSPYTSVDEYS
Assay: [3H]SR142801 competition binding assay
Protocol: [^3H]SR142801 Competition Binding Assay
hNK3 receptor binding experiment were performed using [^3H]SR142801 (Catalog No. TRK1035, specific activity: 74.0 Ci/mmol, Amersham, GE Healthcare UK limited, Buckinghamshire, UK) and membrane isolated from HEK293 cells transiently expressing recombinant human NK3 receptor. After thawing, the membrane homogenates were centrifuged at 48,000×g for 10 min at 4° C., the pellets were resuspended in the 50 mM Tris-HCl, 4 mM MnCl2, 1 μM phosphoramidon, 0.1% BSA binding buffer at pH 7.4 to a final assay concentration of 5 μg protein/well. For inhibition experiments, membranes were incubated with [^3H]SR142801 at a concentration equal to KD value of radioligand and 10 concentrations of the inhibitory compound (0.0003-10 μM) (in a total reaction volume of 500 μl) for 75 min at room temperature (RT). At the end of the incubation, membranes were filtered onto unitfilter (96-well white microplate with bonded GF/C filter preincubated 1 h in 0.3% PEI+0.3% BSA, Packard BioScience, Meriden, Conn.) with a Filtermate 196 harvester (Packard BioScience) and washed 4 times with ice-cold 50 mM Tris-HCl, pH 7.4 buffer. Nonspecific binding was measured in the presence of 10 μM SB222200 for both radioligands. The radioactivity on the filter was counted (5 min) on a Packard Top-count microplate scintillation counter with quenching correction after addition of 45 μl of microscint 40 (Canberra Packard S. A., Zurich, Switzerland) and shaking for 1 h. Inhibition curves were fitted according to the Hill equation: y=100/(1+(x/IC50)^nH), where nH=slope factor using Excel-fit 4 software ([…]). IC50 values were derived from the inhibition curve and the affinity constant (IQ values were calculated using the Cheng-Prussoff equation Ki=IC50/(1+[L]/KD) where [L] is the concentration of radioligand and KD is its dissociation constant at the receptor, derived from the saturation isotherm. All experiments were performed in duplicate and the mean±standard error (SEM) of the individual Ki values was calculated.

[1] = [3H]SR142801, membranes of HEK293 cells transiently expressing recombinant human NK3 receptor, read-out: hNK3 Ki
[2] = representative compounds, [3H]SR142801, HEK293 membranes, human NK3 receptor, read-out: Ki NK3 h

Row | Structure (SMILES) | Ki [1] | Ki [2]
1 | CN(Cc1ccc(F)c(C(F)(F)F)c1)C(=O)C(C)(CCN1CCC(N2CCCC2=O)CC1)c1ccc(Cl)c(Cl)c1 (single isomer, unassigned) [Example 118, (S or R)-2-(3,4-Dichloro-phenyl)-N-(4-fluoro-3-trifluoromethyl-benzyl)-2,N-dimethyl-4-[4-(2-oxo-pyrrolidin-1-yl)-piperidin-1-yl]-butyramide; hydrochloride] | 171 nM | –
2 | CN(Cc1ccc(F)c(C(F)(F)F)c1)C(=O)C(C)(CCN1CCC(N2CCCC2=O)CC1)c1ccc(Cl)c(Cl)c1 (single isomer, unassigned) [Example 119, (R or S)-2-(3,4-Dichloro-phenyl)-N-(4-fluoro-3-trifluoromethyl-benzyl)-2,N-dimethyl-4-[4-(2-oxo-pyrrolidin-1-yl)-piperidin-1-yl]-butyramide; hydrochloride] | 0.8 nM | 0.8 nM
3 | C[C@](CCN1CCC(N2CCCC2=O)CC1)(C(=O)N[C@H](CO)c1ccc(Cl)c(Cl)c1)c1ccc(Cl)c(Cl)c1 (single isomer, unassigned) [Example 120, (R or S)-2-(3,4-Dichloro-phenyl)-N-[(S or R)-1-(3,4-dichloro-phenyl)-2-hydroxy-ethyl]-2-methyl-4-[4-(2-oxo-pyrrolidin-1-yl)-piperidin-1-yl]-butyramide] | 2 nM | 2 nM
4 | CC(=O)N(C)C1CCN(CCC(C)(C(=O)N(C)Cc2ccc(F)c(C(F)(F)F)c2)c2ccc(Cl)c(Cl)c2)CC1 (single isomer, unassigned) [Example 121, (S or R)-4-[4-(Acetyl-methyl-amino)-piperidin-1-yl]-2-(3,4-dichloro-phenyl)-N-(4-fluoro-3-trifluoromethyl-benzyl)-2,N-dimethyl-butyramide] | 173 nM | –

Other lines, results leading:

Row | Ki [1] | Ki [2] | Structure (SMILES)
5 | 1.5 nM | 1.5 nM | CC(=O)N(C)C1CCN(CCC(C)(C(=O)N(C)Cc2ccc(F)c(C(F)(F)F)c2)c2ccc(Cl)c(Cl)c2)CC1 (single isomer, unassigned) [Example 122, (R or S)-4-[4-(Acetyl-methyl-amino)-piperidin-1-yl]-2-(3,4-dichloro-phenyl)-N-(4-fluoro-3-trifluoromethyl-benzyl)-2,N-dimethyl-butyramide]
6 | 800 nM | – | CN(Cc1ccc(C(F)(F)F)c(F)c1)C(=O)C(C)(CCN1CCC(NS(C)(=O)=O)CC1)c1ccc(Cl)c(Cl)c1 (single isomer, unassigned) [Example 123, (S or R)-2-(3,4-Dichloro-phenyl)-N-(3-fluoro-4-trifluoromethyl-benzyl)-4-(4-methanesulfonylamino-piperidin-1-yl)-2,N-dimethyl-butyramide]
7 | 18.8 nM | – | CN(Cc1ccc(C(F)(F)F)c(F)c1)C(=O)C(C)(CCN1CCC(NS(C)(=O)=O)CC1)c1ccc(Cl)c(Cl)c1 (single isomer, unassigned) [Example 124, (R or S)-2-(3,4-Dichloro-phenyl)-N-(3-fluoro-4-trifluoromethyl-benzyl)-4-(4-methanesulfonylamino-piperidin-1-yl)-2,N-dimethyl-butyramide]
8 | 8.2 nM | 8.2 nM | CC(CCN1CCC(N2CCCC2=O)CC1)(C(=O)N[C@@H](CO)c1ccc(F)cc1)c1ccc(Cl)c(Cl)c1 (single isomer, unassigned) [Example 129, 2-(3,4-Dichloro-phenyl)-N-[(R)-1-(4-fluoro-phenyl)-2-hydroxy-ethyl]-2-(R or S) methyl-4-[4-(2-oxo-pyrrolidin-1-yl)-piperidin-1-yl]-butyramide]
9 | 101 nM | – | CC(CCN1CCC(N2CCCC2=O)CC1)(C(=O)N[C@@H](CO)c1ccc(F)cc1)c1ccc(Cl)c(Cl)c1 (single isomer, unassigned) [Example 130, 2-(3,4-Dichloro-phenyl)-N-[(R)-1-(4-fluoro-phenyl)-2-hydroxy-ethyl]-2-(S or R) methyl-4-[4-(2-oxo-pyrrolidin-1-yl)-piperidin-1-yl]-butyramide]
